Results published in US20250320193A1, “OXOISOINDOLINYL SUBSTITUTED PIPERIDINEDIONE DERIVATIVE AND USE THEREOF” (GLUETACS THERAPEUTICS (SHANGHAI) CO., LTD., priority 2022, published 2025).

Columns and labels:
GSPT1 = GSPT1 (Homo sapiens (Human), UniProt P15170+Q96SW2); test: Western blot, substrate protein expression in hPBMC: GSPT1; assay type: cell-based; settings: for substrate protein remaining % GSPT1: hPBMC, compound 500 nM, 24 hours, Western blot
Protocol: (§1) The effect of the compounds of the present disclosure on the expression of target proteins in cells was detected using conventional Western blot analysis.
(§2) Human peripheral blood mononuclear cells (hPBMCs) at a density of 1×10^6 cells/mL were thawed according to the PBMC Recovery Protocol (Milecell Biotechnologies Inc, Shanghai). […] After 24 hours of compounds treatment, cells were harvested and lysed in RIPA protein lysate containing phosphatase inhibitors on ice for 30-60 min, followed by centrifugation. The supernatant was aspirated as the extracted total cell protein. The protein concentration of the supernatant was determined using the conventional BCA (Bicinchoninic Acid) assay. The supernatant was then mixed with 4× SDS sample loading buffer, denatured at 95° C. for 5 minutes, and then subjected to SDS-PAGE electrophoresis on a polyacrylamide gel. Proteins were then transferred to a nitrocellulose (NC) membrane, blocked at room temperature for 1-2 h, and processed for antibody incubation and detection according to the manufacturer's instructions (Cell Signaling Technology).
(§3) Half-Maximal Degradation Concentration value (the drug concentration required for degrading proteins by 50%, abbreviated as DC50) reads method: comparing the grayscale values of Western blot bands from drug-treated samples (protein degrader compounds) with those from blank (DMSO-treated) controls, and identifying the drug concentration range at which the grayscale value is half that of the DMSO-treated control bands.
(§4) DC50 values can be calculated using ImageJ software to measure grayscale values of Western blot bands from drug-treated samples. The relationship curve between drug concentration and grayscale values is fitted to estimate the drug concentration corresponding to half the grayscale value.
(§5) Target protein remaining (%) refers to the percentage of target protein remaining in hPBMC cells after treatment with protein degrader compounds.
(§6) Calculation method for protein remaining (%): Use ImageJ software to measure grayscale values of Western blot bands from drug (protein degrader)-treated samples. The grayscale value of drug-treated bands is divided by that of internal control protein bands, and the resulting quotient is normalized to obtain the relative percentage of remaining target protein after protein degrader treatment.
(§7) Target protein degradation rate (%)=100%-target protein remaining (%).

IKZF3 = IKZF3 (Homo sapiens (Human), UniProt Q96SW2+Q9UKT9); test: Western blot, substrate protein expression in hPBMC: IKZF3; assay type: cell-based; settings: for substrate protein remaining % IKZF3: hPBMC, compound 500 nM, 24 hours, Western blot; for concentration at which IKZF3 protein was significantly degraded (Western blot, FIG. 1): hPBMCs
Protocol: as §1, §2, §3, §4, §5, §6, §7

IKZF1 = IKZF1 (Homo sapiens (Human), UniProt Q13422+Q96SW2); test: Western blot, substrate protein expression in hPBMC: IKZF1; assay type: cell-based; settings: for substrate protein remaining % IKZF1: hPBMC, compound 500 nM, 24 hours, Western blot; for concentration at which IKZF1 protein was significantly degraded (Western blot, FIG. 1): hPBMCs
Protocol: as §1, §2, §3, §4, §5, §6, §7

[1] = target: human Cereblon WT GST-tagged protein (Homo sapiens (Human), UniProt Q96SW2); test: CRBN-binding affinity, HTRF (CEREBLON BINDING kit, CISBIO); settings: HTRF inhibitory activity
In short: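 Compounds were mixed with GST-tagged human Cereblon WT protein, then with Thalidomide-Red tracer and GST Eu antibody, and binding was read by HTRF. Inhibition rate was calculated from 620 nm emission relative to blank control wells (no protein) and solvent control wells.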

IKZF3, sequence (Q9UKT9 whole entry): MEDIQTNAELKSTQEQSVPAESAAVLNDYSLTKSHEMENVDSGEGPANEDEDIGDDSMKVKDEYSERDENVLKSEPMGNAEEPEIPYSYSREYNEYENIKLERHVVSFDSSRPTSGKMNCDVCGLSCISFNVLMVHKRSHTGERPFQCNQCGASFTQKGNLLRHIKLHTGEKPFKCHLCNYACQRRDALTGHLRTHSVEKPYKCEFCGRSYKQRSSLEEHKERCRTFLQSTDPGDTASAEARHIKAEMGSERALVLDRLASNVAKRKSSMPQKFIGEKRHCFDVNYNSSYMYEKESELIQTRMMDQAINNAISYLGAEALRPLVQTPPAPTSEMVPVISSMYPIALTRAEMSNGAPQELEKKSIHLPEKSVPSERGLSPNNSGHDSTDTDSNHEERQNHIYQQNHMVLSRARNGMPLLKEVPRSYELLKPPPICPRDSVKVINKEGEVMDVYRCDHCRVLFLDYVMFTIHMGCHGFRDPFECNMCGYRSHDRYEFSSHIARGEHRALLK
IKZF3, sequence (Q96SW2 whole entry): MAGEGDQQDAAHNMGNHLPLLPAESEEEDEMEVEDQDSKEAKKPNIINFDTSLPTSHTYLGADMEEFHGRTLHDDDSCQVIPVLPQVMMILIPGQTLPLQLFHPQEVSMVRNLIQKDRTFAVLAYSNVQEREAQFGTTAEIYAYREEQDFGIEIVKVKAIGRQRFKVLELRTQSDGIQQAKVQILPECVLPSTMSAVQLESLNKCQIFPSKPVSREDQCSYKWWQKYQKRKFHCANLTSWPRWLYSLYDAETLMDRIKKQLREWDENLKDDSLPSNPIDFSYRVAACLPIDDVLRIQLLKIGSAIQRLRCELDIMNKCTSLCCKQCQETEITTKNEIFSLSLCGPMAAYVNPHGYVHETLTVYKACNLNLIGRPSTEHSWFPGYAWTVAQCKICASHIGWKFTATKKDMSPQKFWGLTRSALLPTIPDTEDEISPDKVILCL
IKZF3, sequence (Q16531 whole entry partner): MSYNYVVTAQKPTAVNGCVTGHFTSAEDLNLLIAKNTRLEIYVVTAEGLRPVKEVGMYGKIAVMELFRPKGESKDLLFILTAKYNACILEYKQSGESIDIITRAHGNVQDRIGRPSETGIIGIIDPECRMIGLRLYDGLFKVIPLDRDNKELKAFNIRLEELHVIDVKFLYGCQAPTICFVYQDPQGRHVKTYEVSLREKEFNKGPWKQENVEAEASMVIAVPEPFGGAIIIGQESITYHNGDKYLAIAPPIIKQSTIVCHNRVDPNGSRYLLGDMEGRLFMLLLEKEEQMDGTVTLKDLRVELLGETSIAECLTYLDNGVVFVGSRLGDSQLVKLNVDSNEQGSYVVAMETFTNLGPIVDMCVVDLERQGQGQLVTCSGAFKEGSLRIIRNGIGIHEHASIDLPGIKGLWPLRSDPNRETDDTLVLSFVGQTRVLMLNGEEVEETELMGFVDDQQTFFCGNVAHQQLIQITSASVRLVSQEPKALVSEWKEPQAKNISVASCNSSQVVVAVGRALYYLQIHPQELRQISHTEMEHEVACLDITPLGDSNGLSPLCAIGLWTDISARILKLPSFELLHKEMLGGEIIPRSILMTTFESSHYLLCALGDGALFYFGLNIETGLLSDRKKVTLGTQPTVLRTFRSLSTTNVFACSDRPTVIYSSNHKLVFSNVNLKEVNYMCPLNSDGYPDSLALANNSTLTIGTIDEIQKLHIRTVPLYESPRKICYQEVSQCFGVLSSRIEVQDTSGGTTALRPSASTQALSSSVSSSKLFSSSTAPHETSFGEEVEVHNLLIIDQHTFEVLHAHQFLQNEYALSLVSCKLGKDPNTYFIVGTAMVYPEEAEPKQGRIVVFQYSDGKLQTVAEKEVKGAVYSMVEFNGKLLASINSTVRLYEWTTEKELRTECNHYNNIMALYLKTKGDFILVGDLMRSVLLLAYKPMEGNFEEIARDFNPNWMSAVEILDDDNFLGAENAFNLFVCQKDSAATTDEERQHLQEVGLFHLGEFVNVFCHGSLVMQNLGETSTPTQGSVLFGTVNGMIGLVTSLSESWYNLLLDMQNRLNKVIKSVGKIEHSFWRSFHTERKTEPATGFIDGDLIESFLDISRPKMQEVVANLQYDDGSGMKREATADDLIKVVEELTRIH
IKZF1, sequence (Q13422 whole entry): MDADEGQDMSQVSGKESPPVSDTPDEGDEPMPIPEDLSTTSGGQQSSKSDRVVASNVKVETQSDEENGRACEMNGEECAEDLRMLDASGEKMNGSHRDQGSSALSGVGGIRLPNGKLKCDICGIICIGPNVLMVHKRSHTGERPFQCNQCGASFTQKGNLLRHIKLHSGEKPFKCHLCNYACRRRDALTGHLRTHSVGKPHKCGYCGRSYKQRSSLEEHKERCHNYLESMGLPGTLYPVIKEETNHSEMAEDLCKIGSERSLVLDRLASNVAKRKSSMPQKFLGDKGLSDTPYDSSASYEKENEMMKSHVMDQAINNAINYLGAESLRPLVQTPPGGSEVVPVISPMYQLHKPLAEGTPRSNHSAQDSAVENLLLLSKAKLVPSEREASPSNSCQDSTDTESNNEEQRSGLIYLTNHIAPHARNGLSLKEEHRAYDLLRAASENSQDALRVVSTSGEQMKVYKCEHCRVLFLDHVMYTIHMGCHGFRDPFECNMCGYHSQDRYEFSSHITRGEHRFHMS
IKZF1, sequence (Q96SW2 whole entry): as the sequence (Q96SW2 whole entry) above
IKZF1, sequence (Q16531 whole entry partner): as the sequence (Q16531 whole entry partner) above
human Cereblon WT GST-tagged protein, sequence (Q96SW2 whole entry): as the sequence (Q96SW2 whole entry) above
GSPT1, sequence (P15170 whole entry): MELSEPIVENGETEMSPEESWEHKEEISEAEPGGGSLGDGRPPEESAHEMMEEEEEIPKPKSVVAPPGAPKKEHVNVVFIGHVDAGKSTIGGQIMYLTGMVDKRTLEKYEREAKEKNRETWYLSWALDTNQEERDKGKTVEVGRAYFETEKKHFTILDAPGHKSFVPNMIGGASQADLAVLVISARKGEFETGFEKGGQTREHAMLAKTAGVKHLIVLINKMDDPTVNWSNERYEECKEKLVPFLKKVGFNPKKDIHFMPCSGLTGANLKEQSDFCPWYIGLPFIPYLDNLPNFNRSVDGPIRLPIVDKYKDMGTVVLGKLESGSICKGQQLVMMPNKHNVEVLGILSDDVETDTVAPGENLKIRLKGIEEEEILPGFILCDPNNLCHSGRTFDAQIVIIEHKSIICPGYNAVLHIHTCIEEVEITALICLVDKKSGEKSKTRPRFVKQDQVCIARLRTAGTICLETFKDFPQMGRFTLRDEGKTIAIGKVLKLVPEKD
GSPT1, sequence (Q96SW2 whole entry): as the sequence (Q96SW2 whole entry) above
GSPT1, sequence (Q16531 whole entry partner): as the sequence (Q16531 whole entry partner) above

IC50 [1]	Compound	substrate protein remaining % GSPT1 (GSPT1)	substrate protein remaining % IKZF3 (IKZF3)	substrate protein remaining % IKZF1 (IKZF1)	concentration at which IKZF3 protein was significantly degraded (Western blot, FIG. 1) (IKZF3)	concentration at which IKZF1 protein was significantly degraded (Western blot, FIG. 1) (IKZF1)	concentration at which GSPT1 protein was clearly/significantly degraded (Western blot, FIG. 1) (GSPT1; hPBMCs)
	O=C1CCC(N2Cc3c(ccc(CN4C5CC4CN(C(c4ccccc4)c4ccccc4)C5)c3F)C2=O)C(=O)N1 (centres unmarked) [GT-03572, 3-(5-((3-benzhydryl-3,6-diazabicyclo[3.1.1]heptan-6-yl)methyl)-4-fluoro-1-oxoisoindolin-2-yl)piperidine-2,6-dione]	A (A represents 0% ≤ substrate protein remaining % ≤ 50%)	A (A represents 0% ≤ substrate protein remaining % ≤ 50%)	B (B represents substrate protein remaining % > 50%)			
	O=C1CCC(N2Cc3c(CN4CCN(C(c5ccc(Cl)cc5)c5ccc(Cl)cc5)CC4)cccc3C2=O)C(=O)N1 (centres unmarked) [GT-03648, 3-(4-((4-(bis(4-chlorophenyl)methyl)piperazin-1-yl)methyl)-1-oxoisoindolin-2-yl)piperidine-2,6-dione]	A (A represents 0% ≤ substrate protein remaining % ≤ 50%)	B (B represents substrate protein remaining % > 50%)	B (B represents substrate protein remaining % > 50%)			
	O=C1CCC(N2Cc3cc(CN4CCN(C(c5cccnc5)c5cccnc5)CC4)c(F)cc3C2=O)C(=O)N1 (centres unmarked) [GT-04386, 3-(5-((4-(di(pyridin-3-yl)methyl)piperazin-1-yl)methyl)-6-fluoro-1-oxoisoindolin-2-yl)piperidine-2,6-dione]	A (A represents 0% ≤ substrate protein remaining % ≤ 50%)	B (B represents substrate protein remaining % > 50%)	B (B represents substrate protein remaining % > 50%)			
	O=C1CCC(N2C(=O)c3ccc(CN4CCN(C(c5ccccc5)c5ccccc5)CC4)cc3C2=O)C(=O)N1 (centres unmarked) [GT-05690, 5-((4-benzhydrylpiperazin-1-yl)methyl)-2-(2,6-dioxopiperidin-3-yl) isoindoline-1,3-dione]	A (A represents 0% ≤ substrate protein remaining % ≤ 50%)	A (A represents 0% ≤ substrate protein remaining % ≤ 50%)	A (A represents 0% ≤ substrate protein remaining % ≤ 50%)	< 500 nM	< 500 nM	
	O=C1CCC(N2C(=O)c3ccc(CN4CCN(C(c5ccccc5)c5ccccn5)CC4)cc3C2=O)C(=O)N1 (centres unmarked) [GT-05723, 2-(2,6-dioxopiperidin-3-yl)-5-((4-(phenyl(pyridin-2-yl)methyl)piperazin-1-yl)methyl) isoindoline-1,3-dione]	A (A represents 0% ≤ substrate protein remaining % ≤ 50%)	B (B represents substrate protein remaining % > 50%)	B (B represents substrate protein remaining % > 50%)			
	O=C1CCC(N2C(=O)c3ccc(CN4CCN(C(c5ccc(F)cc5)c5ccc(F)cc5)CC4)cc3C2=O)C(=O)N1 (centres unmarked) [GT-05726, 5-((4-(bis(4-fluorophenyl)methyl)piperazin-1-yl)methyl)-2-(2,6-dioxopiperidin-3-yl) isoindoline-1,3-dione]	A (A represents 0% ≤ substrate protein remaining % ≤ 50%)	A (A represents 0% ≤ substrate protein remaining % ≤ 50%)	B (B represents substrate protein remaining % > 50%)			
	O=C1CCC(N2C(=O)c3ccc(CN4CCN(C(c5ccc(Cl)cc5)c5ccc(Cl)cc5)CC4)cc3C2=O)C(=O)N1 (centres unmarked) [GT-05727, 5-((4-(bis(4-chlorophenyl)methyl)piperazin-1-yl)methyl)-2-(2,6-dioxopiperidin-3-yl) isoindoline-1,3-dione]	A (A represents 0% ≤ substrate protein remaining % ≤ 50%)	A (A represents 0% ≤ substrate protein remaining % ≤ 50%)	B (B represents substrate protein remaining % > 50%)			
	O=C1CCC(N2C(=O)c3ccc(CN4CCCN(C(c5ccccc5)c5ccccc5)CC4)cc3C2=O)C(=O)N1 (centres unmarked) [GT-05739, 5-((4-benzhydryl-1,4-diazepan-1-yl)methyl)-2-(2,6-dioxopiperidin-3-yl) isoindoline-1,3-dione]	A (A represents 0% ≤ substrate protein remaining % ≤ 50%)	B (B represents substrate protein remaining % > 50%)	B (B represents substrate protein remaining % > 50%)			
	O=C1CCC(N2C(=O)c3ccc(CN4CCC(N(c5ccccc5)c5ccccn5)CC4)cc3C2=O)C(=O)N1 (centres unmarked) [GT-05742, 2-(2,6-dioxopiperidin-3-yl)-5-((4-(phenyl(pyridin-2-yl)amino)piperidin-1-yl)methyl) isoindoline-1,3-dione]	A (A represents 0% ≤ substrate protein remaining % ≤ 50%)	A (A represents 0% ≤ substrate protein remaining % ≤ 50%)	A (A represents 0% ≤ substrate protein remaining % ≤ 50%)	below 50 nM	below 50 nM	below 50 nM
	O=C1CCC(N2Cc3ccc(C(=O)N4CCN(C(c5ccccc5)c5ccccc5)CC4)cc3C2=O)C(=O)N1 (centres unmarked) [GT-05851, 3-(6-(4-benzhydrylpiperazine-1-carbonyl)-1-oxoisoindolin-2-yl)piperidine-2,6-dione]	A (A represents 0% ≤ substrate protein remaining % ≤ 50%)	B (B represents substrate protein remaining % > 50%)	A (A represents 0% ≤ substrate protein remaining % ≤ 50%)			
< 500 nM	O=C1CCC(N2Cc3c(ccc(C4CCN(C(c5ccccc5)c5ccccc5)CC4)c3F)C2=O)C(=O)N1 (centres unmarked) [GT-06136, 3-(5-(1-benzhydrylpiperidin-4-yl)-4-fluoro-1-oxoisoindolin-2-yl)piperidine-2,6-dione]						
500 to 1000 nM	O=C1CCC(N2Cc3cc(C(=O)N4CCN(C(c5ccccc5)c5ccncc5)CC4)ccc3C2=O)C(=O)N1 (centres unmarked) [GT-06144, 3-(1-oxo-5-(4-(phenyl(pyridin-4-yl)methyl)piperazine-1-carbonyl)isoindolin-2-yl)piperidine-2,6-dione]						
500 to 1000 nM	O=C1CCC(N2Cc3ccc(C(=O)N4CCN(C(c5cccc(F)c5)c5cccc(F)c5)CC4)cc3C2=O)C(=O)N1 (centres unmarked) [GT-06149, 3-(6-(4-(bis(3-fluorophenyl)methyl)piperazine-1-carbonyl)-1-oxoisoindolin-2-yl)piperidine-2,6-dione]						
500 to 1000 nM	O=C1CCC(N2Cc3cccc(C(=O)N4CCN(C(c5cccc(F)c5)c5cccc(F)c5)CC4)c3C2=O)C(=O)N1 (centres unmarked) [GT-06150, 3-(7-(4-(bis(3-fluorophenyl)methyl)piperazine-1-carbonyl)-1-oxoisoindolin-2-yl)piperidine-2,6-dione]						
< 500 nM	O=C1CCC(N2Cc3cc(C4CCN(C(c5ccccc5)c5ccccc5)CC4)cc(F)c3C2=O)C(=O)N1 (centres unmarked) [GT-06198, 3-(5-(1-benzhydrylpiperidin-4-yl)-7-fluoro-1-oxoisoindolin-2-yl)piperidine-2,6-dione]						
1000 to 1900 nM	O=C1CCC(N2Cc3cc(NC4CCC(N(c5ccccc5)c5ccccc5)CC4)ccc3C2=O)C(=O)N1 (centres unmarked) [GT-06806, 3-(5-((4-(diphenylamino)cyclohexyl)amino)-1-oxoisoindolin-2-yl)piperidine-2,6-dione]						
